Patent publication US20190275010A1, “COMBINATION THERAPY COMPRISING A THIAZOLE AND A SECOSTEROID TO TREAT SKIN CONDITIONS” (Avexxin AS, priority 2016, published 2019)
“Also recorded” adds a separate entry of the source.

System: HaCaT cells
Experiment: Resazurin assay, HaCaT keratinocyte cell viability
Format: cell-based, human
Conditions: for effect on cell viability at 10 μM: single agent 10 μM, 24 hours (FIG. 1); for concentration at which the compound was found to reduce cell viability: single agent dose response, 24 hours treatment, resazurin (FIG. 1)
Procedure: The spontaneously immortalized, nontumorigenic skin keratinocyte cell line HaCaT was maintained in DMEM supplemented with 5% (v/v) FBS, 0.3 mg/ml glutamine and 0.1 mg/ml gentamicin at 37° C. with 5% CO2 in a humidified atmosphere. Subculture using trypsin-EDTA was performed every 3-4 days with split ratio of 1:3-1:4 to ensure actively proliferating cells.
Cells were seeded in 96 well plates in fully supplemented medium at a density of 3000 cells per well. Following 72 hour of cultivation, the cells were starved of serum in 0.25% FBS/DMEM overnight to halt proliferation, synchronize the cells and to increase cell sensitivity to treatment. Next day, the cells were treated with cPLA2α inhibitor Compound B, Compound A, vitamin D analogue Calcipotriol and corticosteroid hormone receptor agonist Betamethasone dipropionate for 24 hours. Resazurin was added next day according to the manufacturer's instruction (RnD Systems, UK) and left to incubate for […] in incubator at 37° C. with 5% CO2 in a humidified atmosphere before fluorescence was read at 544 nm excitation and 590 nm emission wavelength. The cells were observed under the microscope to evaluate possible morphology changes and signs of stress before addition of resazurin. The experiments were performed in series of 8 wells per treatment and repeated 3 times.

## C=C1/C(=C\C=C2/CCC[C@]3(C)[C@@H]([C@H](C)/C=C/[C@@H](O)C4CC4)CC[C@@H]23)C[C@@H](O)C[C@@H]1O [Calcipotriol]
  effect on cell viability at 10 μM: no signs of impairment in cell viability; also recorded: no toxicity
  concentration at which the compound was found to reduce cell viability: 15 µM

## CCCCCCCOc1ccc(OCC(=O)c2nc(C(=O)OC)cs2)cc1 [Compound A1]
  effect on cell viability at 10 μM: no toxicity
  concentration at which the compound was found to reduce cell viability: 20 µM
